From patent US7695971B2, “Use of non-absorbable fat in determining dietary fat absorption” (Children's Hospital Medical Center, priority 2003, dated 2010)
One block for each compound: values may come before it.

Experiments:
[1] = Fat absorption by sucrose behenate marker method, rats (Example 2)
Method: (§1) These two diets further have the following composition by weight: about 16% fat, 45% non-fat dry milk, and 39% sucrose, providing 30:15:55 fat:protein:carbohydrate energy %. Non-fat dry milk comprised 60% carbohydrate and 40% protein by weight. The fat composition (% by weight) is given for each diet as listed below. […] Aliquots of approximately 10 microliters of each fat blend are set aside and later analyzed for fatty acid analysis. The fat blends are added to non-fat dry milk and sucrose and mixed with an electric mixer for 5 minutes. The prepared diets are placed in a capped glass bottle and stored at 4° C. until used.
(§2) The feeding and fecal collection regimen for rodents includes two days of test diet and three days of fecal collection. Prior to the study, the animals eat commercial chow ad libitum. Test diets, also fed ad libitum, replace chow on days 0 and 1, and chow is returned to the animals on day 2. Fecal collections are made on days 1, 2, and 3. The feeding and feces collection regimen is illustrated in the following table A:
(§3) In general sample sizes of 10-20 milligrams provide a 5 to 10-fold excess of behenate in terms of the sensitivity of the gas chromatograph. The weighed fecal sample is ground into small particles with a spatula and placed in a 20 mL vial for saponification, methylation, and extraction. The method for saponification and methylation of fatty acids for gas chromatographic analysis can be that reported by Mecalfe (Metcalfe, L D et al. (1966). Anal. Chem. 38: 514-515). Four mL of 0.5N methanolic sodium hydroxide are added to the vial, which is then heated in a water bath at ˜80° C. for 5 mins. After a brief cooling period, 3 mL of BF3 in methanol (14% borontrifluoride and 86% methanol) are added to methylate the sample. After another five minutes of heating in the waterbath, the sample vial is allowed to cool to allow handling. Two mL of a saturated solution of sodium chloride and 10 mL of hexane are added to the vial. The samples are then mixed with a vortex mixer for one minute. Centrifugation can be used (2500 rpm at 1 min) to expedite the process of separation into two layers. The hexane fraction is transferred by pipette into a 20 mL vial that contains ˜10 mg of sodium sulfate to dry the sample. The hexane solution is removed for gas chromatograph analysis. An injection volume of 1 μL of the 10 mL of hexane is analyzed.
Samples are analyzed with a gas chromatograph (GC) such as a Shimadzu GC-17A equipped with autosampler and autoinjector. Analysis of fatty acid methyl esters is then based on areas calculated with Shimadzu Class VP 4.3 software. […]
The absorption of fatty acids is calculated with formula II: […]

[2] = Fat absorption by sucrose behenate marker method, mice (Example 1)
Method: as §1, §2, §3
Samples are analyzed with a gas chromatograph (GC) such as a Shimadzu GC-17A equipped with autosampler and autoinjector. Analysis of fatty acid methyl esters is then based on areas calculated with Shimadzu Class VP 4.3 software. An example of an appropriate column is one that can be obtained from J&W Scientific, DB-23 (123-2332): 30 m (length), I.D. (mm) 0.32 widebore, film thickness of […], although any suitable column can be substituted. Fatty acid identification is made by the use of comparison of retention times with those of authenticated standards. The conditions for the GC analysis in the present example are: Column temperature ramping by holding at 120° C. for one minute followed by an increase of 5° C./min from 120-240° C. The temperature of the injector and flame ionization detector is 250° C. A split (8:1) injection mode is used. The carrier gas is helium with a column flow rate of 2.5 mL/min. Under these conditions, the retention time of methyl behenate is 18.7 min.
The absorption of fatty acids is calculated with formula II:
[formula] • where Fd=sum of the masses of all dietary fatty acids (or that of an individual fatty acid) other than behenic acid, • Bd=mass of dietary behenic acid, • Ff=sum of the mass of all fecal fatty acids (or that of an individual fatty acid) other than behenic acid, and • Bf=mass of fecal behenic acid.

- absorption of individual fatty acid from safflower oil ([1]; rat, in vivo): 90.1±0.3%
- Percent in Feces (Mean ± SEM) ([2]; male, C57B1/6, mouse, in vivo): 18.3 ± 0.5%
SMILES: CCCCCCCCCCCCCCCC(=O)O [Palmitic acid]

- absorption of individual fatty acid from safflower oil ([1]; rat, in vivo): 75.9±0.3%
- Percent in Feces (Mean ± SEM) ([2]; male, C57B1/6, mouse, in vivo): 5.28 ± 0.3%
- absorption of individual fatty acid ([2]; male, C57B1/6, mouse, in vivo): 77.3±2.1%
SMILES: CCCCCCCCCCCCCCCCCC(=O)O [Stearic acid]

SMILES: CCCCCCCCCCCCCCCCCCCCCC(=O)O [behenic acid, reference compound]
- behenic acid in feces, of the total fatty acids ([2]; mice fed Safflower Oil Diet): 33.5-66.4%
- behenic acid in feces, of the fatty acids ([2]; mice fed Safflower Oil and Olestra Diet): 12.5-19.3%

- absorption of individual fatty acid from safflower oil (in words) ([1]; rat, in vivo): essentially complete
- Percent in Feces (Mean ± SEM) ([2]; male, C57B1/6, mouse, in vivo): 27.7 ± .6%
- absorption of individual fatty acid from safflower oil (in words) ([2]; mouse, in vivo): nearly complete
SMILES: CCCCC/C=C\C/C=C\CCCCCCCC(=O)O [linoleic acid]

SMILES: CCCCCCCC/C=C\CCCCCCCC(=O)O [oleic]
- absorption of individual fatty acid from safflower oil ([1]; rats, fecal collections of days 2 and 3): 90.9±0.5%
- Percent in Feces (Mean ± SEM) ([2]; fecal samples from mice ingesting Safflower Oil and Olestra Diet): 24.7 ± 01.0%
- absorption of individual fatty acid from safflower oil (in words) ([2]; mice, Safflower Oil Diet): nearly complete
